Measured values: PMC5051147, “Ester Hydrolysis Differentially Reduces Aconitine-Induced Anti-hypersensitivity and Acute Neurotoxicity: Involvement of Spinal Microglial Dynorphin Expression and Implications for Aconitum Processing” (Frontiers in Pharmacology, 2016)
“Also recorded” adds a separate entry of the source.

What was measured:
[1] = test system: mechanical allodynia in spinal L5/L6 nerve–ligated neuropathic rats; assay: Mechanical allodynia (von Frey paw withdrawal threshold) after intrathecal injection in spinal nerve-ligated neuropathic rats; format: in vivo, rat
Procedure: (§1) An 18-cm polyethylene catheter (PE-10: 0.28-mm inner diameter and 0.61-mm outer diameter, Clay Adams, Parsippany, NJ, USA) with a volume of 13 μL was inserted into the lumbar level of the spinal cord as described elsewhere under inhalational isoflurane anesthesia (4% for induction and 1% for maintenance) run by an anesthesia meter (Ugo Basile Gas Anesthesia System, Comerio, Italy). Two days after recovery from anesthesia, the placement of the catheter in the spinal cord was verified by administration of 4% lidocaine (10 μL, followed by 15 μL of saline for flushing). Rats that had no motor impairment after placement of the intrathecal catheter were considered for the study, and rats that developed immediate bilateral paralysis of the hindlimbs after intrathecal administration of lidocaine were selected for the study. For intrathecal administration of the control and test articles, 10 μL of each drug was injected with a 50-μL microinjector (Shanghai Anting Micro-Injector Factory, Shanghai, China) and was flushed with 15 μL of normal saline solution.
(§2) To induce hypersensitivity to neuropathic pain, the rats were subjected to spinal nerve ligation as previously described [Kim and Chung (1992)] and [Zhang et al. (2013)]. Unilateral ligation of the L5 and L6 spinal nerves was performed under inhalational isoflurane anesthesia (4% for induction and 1% for maintenance) run by an anesthesia meter (Ugo Basile Gas Anesthesia System). The left L5 and L6 spinal nerves were isolated and tightly ligated with 6-0 silk thread. After ligation, the wound was sutured and the rats were returned to their home cages for recovery. After spinal nerve ligation, only those rats with marked unilateral allodynia to mechanical stimulation (i.e., a hindpaw withdrawal threshold of less than 8 g on the operated side) and with no major impairment were included in the study. Drug testing started 2–4 weeks after spinal nerve ligation.
To evaluate mechanical allodynia, the animals were acclimatized for at least 30 min to the test environment, namely, a plexiglass box on a metal grid (0.5 cm × 0.5 cm). The hindpaw withdrawal threshold was measured with a 2450 CE Electronic von Frey hair (IITC Life Science Inc, Woodland Hill, CA, USA). An electronic handheld transducer with a No. 15 monofilament was applied perpendicularly to the medial surface of the hindpaws with increasing force (ranging from 0.1 to 90 g) until the rat suddenly withdrew or licked the hindpaw. The lowest force that produced a withdrawal response was considered to be the threshold, which was the mean of three repeated measurements made in a 5-min interval.
(§3) The percentage of maximal possible effect (% MPE) was calculated using the following formula: (postdrug threshold in ipsilateral hindlimb – baseline threshold in ipsilateral hindlimb)/(baseline threshold in contralateral hindlimb – baseline threshold in ipsilateral hindlimb) × 100 ([Bowersox et al., 1996]). A % MPE value near 100 indicates normal mechanical thresholds (i.e., near contralateral thresholds), and a value near 0 indicates allodynia. For the dose-response curve analysis, the parameters (i.e., minimum effect; Emax, median effective concentration or dose, or median toxic or lethal dose [EC50, ED50, TD50, or LD50], and Hill coefficient [n]) were calculated from the individual dose-response curves using the Prism program (version 5.01, GraphPad Software, San Diego, CA, USA). To determine the parameters of the dose-response curves, the values of response (Y) were fitted by non-linear least-squares curves to the relation Y = a + bx, where x = [D]^n/(ED50^n + [D]^n), [C]^n/(EC50^n + [C]^n), [D]^n/(TD50^n + [D]^n) or [D]^n/(LD50^n + [D]^n), to give each value of ED50, EC50, TD50, or LD50 and b (Emax) yielding a minimum residual sum of squares of deviations from the theoretical curve ([Wang and Pang, 1993]).

[2] = test system: heat hyperalgesia in spinal L5/L6 nerve–ligated neuropathic rats; assay: Heat hyperalgesia (radiant heat paw withdrawal latency) after intrathecal injection in spinal nerve-ligated neuropathic rats; format: in vivo, rat
Procedure: as §1, §2
To assess heat hyperalgesia, the rats were put in a plexiglass box on an elevated glass surface. After an adaptation period of at least 30 min, radiant heat was applied to the plantar medial surface of each hindpaw. The hindpaw withdrawal latency was measured with a Model 390G Plantar Test Analgesia Meter (IITC Life Science Inc.). To prevent tissue damage, the latency cutoff was set at 30 s. The paw withdrawal latency was defined as the time from the onset of radiant heat application to the withdrawal of the hindpaw. Both hindpaws were tested independently three times with a 5-min interval between trials. The result for each test was calculated as the mean of the three repeated measurements.
as §3, with “To determine the parameters of the dose-response curves, the values of response (Y) were fitted by non-linear least-squares curves to the relation Y = a + bx, where x = [D]^n/(ED50^n + [D]^n), [C]^n/(EC50^n + [C]^n), [D]^n/(TD50^n + [D]^n) or [D]^n/(LD50^n + [D]^n), to give each value of ED50, EC50, TD50, or LD50 and b (Emax) yielding a minimum residual sum of squares of deviations from the theoretical curve ([Wang and Pang, 1993]).” left out

[3] = test system: pain hypersensitivity in spinal nerve-ligated neuropathic rats; assay: Anti-hypersensitivity, normalized (anti-allodynia and anti-hyperalgesia ED50 averaged); format: in vivo, rat; details: intrathecal; average of allodynia and hyperalgesia ED50
Procedure: as §3
Table 1 summarizes the ED50 values in mole base for aconitine, benzolyaconine, and aconine to block pain hypersensitivity. Because anti-allodynia and anti-hyperalgesia were closely correlated, their ED50 values were averaged to obtain a normalized ED50 for anti-hypersensitivity. The ED50 ratios for aconitine and benzolyaconine to block mechanical allodynia and heat hyperalgesia were 1:92 and 1:110, with a normalized ED50 ratio of 1:102.

[4] = test system: spinal nerve–ligated neuropathic rats; assay: Acute spinal neurotoxicity (flaccid paralysis and death) after intrathecal injection; format: in vivo, rat
Procedure: as §1
Survival and abnormal motor-blockade behaviors, including asthma, abdominal breathing, locomotion difficulty, and paralysis, were continuously monitored for 24 h after the treatment, with special attention given during the first 4 h. Paralysis was defined as an inability to negotiate a 60-degree inclined plane ([Durant and Yaksh, 1986]). Death was defined as respiratory arrest over a period of 5 min. The paralysis and mortality rates and their latencies were quantitatively recorded and tabulated.
as §3

[5] = test system: mice; details: intravenous injection in mice; ref Mizugaki and Ito, 2005; cited from earlier work
[6] = intrathecal bolus, observed 24 h

In the case of CCN1C[C@]2(COC)[C@H](O)C[C@H](OC)[C@@]34[C@@H]5C[C@@]6(O)[C@H](OC(=O)c7ccccc7)[C@@H]5[C@@](OC(C)=O)([C@@H]([C@H](OC)[C@H]23)[C@@H]14)[C@@H](O)[C@@H]6OC [Aconitine, aconitine], the “Anti-allodynic effect in ipsilateral paws” value ([1]; intrathecal 100 ng) is reported as “marked and reversible anti-allodynic effect; also recorded: marked and reversible anti-allodynia”, the “Time of peak effect on mechanical allodynia and heat hyperalgesia” value ([1]; intrathecal, ipsilateral paws, after injection) is reported as 1 h and the “Emax, blockade of mechanical allodynia” value ([1]; intrathecal, 1 h after injection) is reported as 61.9 % MPE. For the same compound, the “ED50, blockade of mechanical allodynia” value ([1]; intrathecal, % MPE at 1 h after injection) was 39 pmol, the “Effect on withdrawal responses in the contralateral paws” value ([1]; intrathecal, mechanical and thermal stimuli) was “did not significantly alter the withdrawal responses in the contralateral paws” and the “Emax, blockade of thermal hyperalgesia” value ([2]; 1 h after injection) was 100 % MPE. The “ED50, blockade of thermal hyperalgesia” value ([2]; % MPE at 1 h after injection) was 32 pmol, the “Normalized ED50 for anti-hypersensitivity” value [3] was 35 pmol and the “Duration of toxic motor-blockade behavior” value ([4]; intrathecal) was 5 to 10 min. The “Latency of toxic motor-blockade behavior” value ([4]; intrathecal) was 2 to 3 min, the Death latency ([4]; intrathecal 0.25 μg) was 13.6 min and the Paralysis latency ([4]; intrathecal 0.25 μg) was 2.3 ± 0.7 min. The Death latency ([4]; intrathecal 0.32 μg) was 12.4 ± 2.3 min, the Paralysis latency ([4]; intrathecal 0.32 μg) was 2.5 ± 0.8 min and the Death latency ([4]; intrathecal 0.4 μg) was 10.0 ± 3.3 min. The Paralysis latency ([4]; intrathecal 0.4 μg) was 2.6 ± 1.2 min, the “LD50 (mortality)” value [4, 6] was 0.6 nmol and the “TD50 (for flaccid paralysis)” value [4, 6] was 0.4 nmol. For the same compound, the “Normalized TD50” value ([4]; intrathecal, average of TD50 (paralysis) and LD50) was 0.5 nmol and the LD50 [5] was 0.12 mg/kg.
